Data published in patent publication US8501911B2, “Methods of reducing inflammation and mucus hypersecretion” (Biomarck Pharmaceuticals, Ltd, priority 1999, dated 2013).
Residues, ends and D or L forms follow the SMILES beside them. *: point of attachment. Myristoyl = CCCCCCCCCCCCCC(=O)*

What was measured:
NHBE cells = assay: Mucin secretion from NHBE cells exposed to kinase activators/reagents alone (ELISA); type: cell-based, human; settings: 15 min
Description: To determine the potential role of PKC and/or PKG in the mucin secretory process, NHBE cells were exposed to the following two specific protein kinase activators: the phorbol ester, phorbol 12-myristate 13-acetate (PMA), for activation of PKC, and the nonhydrolyzable cGMP analogue, 8-Br-cGMP, for activation of PKG.
NHBE Cell Culture—Expansion, cryopreservation, and culture of NHBE cells in the air/liquid interface were performed as described previously. See, Krunkosky et al. Briefly, NHBE cells (Clonetics, San Diego, Calif.) were seeded in vented T75 tissue culture flasks (500 cells/cm^2) and cultured until cells reached 75-80% confluence. Cells were then dissociated by trypsin/EDTA and frozen as passage-2. Air/liquid interface culture was initiated by seeding passage-2 cells (2×10^4 cells/cm^2) in […]® clear culture inserts (Costar, Cambridge, Mass.) that were thinly coated with rat tail collagen, type 1 (Collaborative Biomedical, Bedford, Mass.). Cells were cultured submerged in medium in a humidified 95% air, 5% CO2 environment for 5-7 days until nearly confluent. At that time, the air/liquid interface was created by removing the apical medium and feeding cells basalaterally. Medium was renewed daily thereafter. Cells were cultured for an additional 14 days to allow for full differentiation.
Measurement of Mucin Secretion by ELISA—Before collection of “base line” and “test” mucin samples, the accumulated mucus at the apical surface of the cells was removed by washing with phosphate-buffered saline, pH 7.2. To collect the base-line secretion, cells were incubated with medium alone, and secreted mucin in the apical medium was collected and reserved. Cells were rested for 24 h and then exposed to medium containing the selected stimulatory and/or inhibitory reagents (or appropriate controls), after which secreted mucin was collected and reserved as the test sample. Incubation times for the base line and the test were the same but varied depending on the test reagent utilized. Both base line and test secretions were analyzed by ELISA using an antibody capture method as known in the art. See, e.g., Harlow et al., Antibodies: A Laboratory Manual, pp. 570-573, Cold Spring Harbor Laboratory, Cold Spring Harbor, N.Y. (1988). The primary antibody for this assay was 17Q2 (Babco, Richmond, Calif.), a monoclonal antibody that reacts specifically with a carbohydrate epitope on human airway mucins. […] Wright et al., Am. J. Physiol. 271, L854-L861 (1996). Levels of mucin secretion were reported as percentage of the medium control.
Mucus secreted from the airway epithelial cells in vitro after stimulation by activators was assessed using an ELISA (antibody capture method) (E. Harlow, D. Lane. “Antibodies: A Laboratory Manual.” New York: Cold Spring Harbor Laboratory Press, 1988), wherein the collected mucus is bound directly to the ELISA plate. Mucus was detected using an antibody raised against monkey airway mucus (Lin et al. Am J Respir Cell Mol Biol 1:41, 1989).

[1] = system: MARCKS-related mucus secretion; assay: Inhibition of MARCKS-related mucus (mucin) secretion, Table 1; type: cell-based; settings: at 100 μM of test peptide
HL-60 clone 15 cells = assay: Inhibition of eosinophil peroxidase (EPO) release from HL-60 clone 15 cells; type: cell-based, human; settings: at 50 μM of test peptide; 100 nM PMA 2 hours
Source text: The human promyelocytic cell line (Fischkoff S A, Graded increase in probability of eosinophilic differentiation of HL-60 promyelocytic leukemia cells induced by culture under alkaline conditions. Leuk. Res., 12:679-686, 1988; Rosenberg H F, Ackerman S J, Tenen D G. Human eosinophil cationic protein: molecular cloning of a cytotoxin and helminthotoxin with ribonuclease activity. J. Exp. Med., 170:163-176, 1989), HL-60 clone 15, is eosinophil-like promyelocytic human cell line which was purchased from American Type Culture Collection (ATCC) Rockville, Md. (catalog #CRL-1964). The cells were maintained in medium consisting of RPMI 1640 with glutamine supplemented with 10% heat inactivated fetal bovine serum (Gibco, Carlsbad, Calif.), 50 IU/mL penicillin, 50 μg/mL streptomycin, and 25 mM HEPES buffer, pH 7.8 at 37° C. in an atmosphere containing 5% CO2. Final differentiation of an eosinophil-like phenotype was initiated by culturing the cells at 5×10^5 cells/mL in the above medium containing 0.5 mM butyric acid (Sigma-Aldrich) for 5 days as previously described by Tiffany H L, Li F, and Rosenberg H F, Hyperglycosylation of eosinophil ribonuclease in a promyelocytic leukemia cell line and in differentiated peripheral blood progenitor cells J. Leukoc. Biol. 58: 49-54, 1995; and by Tiffany H L, Alkhatib G, Combadiere C, Berger E A, and Murphy P M., CC Chemokine receptors are differentially regulated by IL-5 during maturation of eosinophilic HL-60 cells. J. Immunol. 160:1385-1392, 1998. The cells were washed and resuspended at 2.5×10^6 per mL in phenol free RPMI-1640 (Cellgro; Mediatech Inc.). Aliquots of cells in 15 mL plastic tubes were preincubated with indicated concentration of test peptide (dissolved in PBS, pH 7.0) for 10 minutes followed by treatment of the cells with 100 nM PMA for 2 hours. The reaction was terminated by placing the tubes on ice and centrifugation of cells at 400 g for 5 min at 4° C. The eosinophil peroxidase (EPO) activity released by HL-60 clone 15 cells was assayed using TMB according to a previously established technique Paige et al (see above) and by Lacy P, Mahmudi-Azer S, Bablitz B, Hagen S C, Velazquez J R, Man S F, Moqbel R. Rapid mobilization of intracellularly stored RANTES in response to interferon-gamma in human eosinophils. Blood 94:23-32, 1999. Briefly, add 50 μL aliquots of the supernatant to 96-well microtiter plate followed by addition of 100 μL of the tetramethylbenzidine (TMB) substrate solution and incubate at room temperature for 15 minutes. The reaction was terminated by addition of 50 μL of 1.0 M sulfuric acid and absorbance was read at 450 nm in a spectrophotometric microplate reader (Molecular Devices, Sunnyvale, Calif.). The amount of secreted EPO was expressed as percentage of total content using the amount obtained in the same number of triton X-100-lysed cells.
Because standard EPO from HL-60 clone 15 cells was not available to use for quantification, we measured both released and intracellular (from lysed cells) levels of EPO, and expressed the released EPO as a percentage of total (intracellular and released) for each. To measure intracellular EPO in HL-60 clone 15 cells, appropriate aliquots of 0.1% triton X-100-lysed cells were taken for quantification of intracellular EPO as described above. All data are expressed as percentage of control to minimize variability between cultures.

U937 cells = assay: Inhibition of lysozyme release from U937 cells; type: cell-based, human; settings: at 50 μM of test peptide; 100 nM PMA
Description: U937 is a monocyte-like human cell line which was purchased from American Type Culture Collection (ATCC) Rockville, Md. (catalog #CRL-15932). The cells were maintained in medium consisting of RPMI 1640 with glutamine supplemented with 10% heat inactivated fetal bovine serum (Gibco, Carlsbad, Calif.), 50 IU/mL, penicillin, 50 μg/mL streptomycin at 37° C. in an atmosphere containing 5% CO2. U937 cells were washed and resuspended at 2.5×10^6 cells/mL in phenol red free RPMI-1640 medium (Cellgro, Mediatech Inc.). Aliquots of cells in 15 mL plastic tubes were preincubated with indicated concentrations of test peptides (dissolved in PBS, pH 7.0) for 10 min at 37° C. The cells were then stimulated with 100 nM PMA for 1 hour. The cells were then centrifuged at 400×g for 5 min at 4° C. Lysozyme released from U937 cells was measured using spectrophotometric assay as described previously by Ralph et al., 1976. (Ralph P, Moore M A S, and Nilsson K. Lysozyme synthesis by established human and murine histocytic lymphoma cell lines. J. Exp. Med. 143:1528-33, 1976). Briefly. 100 μL of supernatants were placed in a 96-well microtiter plate and mixed with 100 μL of a Micrococcus lysodeikticus (Sigma-Aldrich) suspension (0.3 mg/mL in 0.1 M sodium phosphate buffer, pH 7.0), incubated for […] at room temperature and decrease in absorbance at 450 nm was measured. Chicken egg white lysozyme (EMD Biosciences) was used as a standard.

[2] = Solubility in 0.5 N saline; type: physicochemical; settings: in 0.5 N Saline at pH 6.5
human neutrophils = assay: Human neutrophil chemotactic migration assay; type: cell-based; settings: test peptide 50 μM; for Neutrophil Migration (% Inhibition), LTB4: LTB4 100 nM; for Neutrophil Migration (% Inhibition), LTB4 / Neutrophil Migration (% Inhibition), fMLP: 0 = inactive; for Neutrophil Migration (% Inhibition), PAF: PAF 100 nM; for Neutrophil Migration (% Inhibition), fMLP: fMLP 100 nM
Description: Human neutrophils were isolated from heparinized whole blood collected from healthy adult donors via cephalic venipuncture by a slightly modified method as described by Akasaki et al., 1999 (Akasaki T, Koga H, and Sumimoto H., Phosphoinositide 3-kinase-dependent and -independent activation of the small GTPase Rac2 in human neutrophils, J. Biol. Chem. 274:18055-18059, 1999). The blood was mixed with dextran (final concentration 1.4% dextran) and then allowed to settle for 60 minutes, after which time the leukocyte rich plasma was collected and layered onto 5 mL of Ficoll-Paque PLUS in 15 ml, conical tubes. The plasma was centrifuged at 1800 rpm for 20 minutes at room temperature. The residual erythrocytes were lysed utilizing a hypotonic saline and the remaining neutrophils were re-suspended in Hank's balanced salt solution containing 20 mM HEPES and 8.9 mM sodium bicarbonate without calcium or magnesium (HBSS), yielding neutrophils that were greater than 98% pure and greater than 99% viable.
Neutrophil migration assay was performed according to the method described by Frevert C W, Wong V A, Goodman R B, Goodwin R, and Martin T R., Rapid fluorescence-based measurement of neutrophil migration in vitro, J. Immunol. Methods, 213:41-52, 1998. Human neutrophils were labeled with the fluorescent dye calcein for 30 minutes at room temperature. Cells were then washed and resuspended in a migration buffer containing HBSS with 2% FCS. Cells were treated with buffer alone or with the indicated test peptide (50 μM) for 30 minutes at 37° C. Treated cells (1×10^4 cells) were then placed on the upper side of a ChemoTx® chemotaxis plate (Neuroprobe, Gaithersburg, Md.) membrane (2 μm pore size). Lower wells of the plate were filled with migration buffer alone or with buffer containing fMLP (100 nM), LTB4 (100 nM), or PAF (100 nM). Wells containing 1×10^4 labeled cells were used as standards to calculate migration percentage. Cells were allowed to migrate for 1 hour at 37° C. After incubation, cells on the top of the filter were washed away with PBS. Followed by this, 0.5 mM EDTA was added to the top of the filter for 5 min to detach adherent cells and the membrane was again washed. The plate was then centrifuged at 1000 rpm for 1 min. The filter was removed and the fluorescence was measured in the lower wells (485 nm excitation, 530 nm emission wavelength) using an fMax fluorescence plate reader (Molecular Devices, Sunnyvale, Calif.). Percent migration was determined by dividing the fluorescence of each well by the fluorescence of the standard wells containing 1×10^4 labeled cells. A lesser number of migrated neutrophils in the bottom compartment is indicative of the test peptide being an inhibitor of inflammation.

Row | Compound | Mucin secretion as percent of control (NHBE cells; reagent 100 nM alone) | Mucin secretion as percent of control (NHBE cells; reagent 1 μM alone) | Mucin secretion as percent of control (NHBE cells; reagent 1 μM together with PMA 100 nM) | % Inhibition Mucin [1] | % Inhibition EPO (HL-60 clone 15 cells) | % Inhibition Lysozyme (U937 cells) | solubility [2] | Neutrophil Migration (% Inhibition), LTB4 (human neutrophils) | Neutrophil Migration (% Inhibition), PAF (human neutrophils) | Neutrophil Migration (% Inhibition), fMLP (human neutrophils)
1 | CCCCCCCCCCCCCC(=O)O[C@@H]1[C@@H](C)[C@@]2(O)[C@@H](C=C(CO)C[C@@]3(O)C(=O)C(C)=C[C@@H]23)[C@@H]2C(C)(C)[C@]12OC(C)=O [4-alpha-PMA] | 104% |  |  |  |  |  |  |  |  | 
2 | Nc1nc2c(nc(Br)n2[C@@H]2O[C@@H]3COP(O)(=S)O[C@H]3[C@H]2O)c(=O)[nH]1 (some centres unmarked) [Rp-8-Br-cGMP] |  | 100% | 123% |  |  |  |  |  |  | 
3 | CCCCCCCCCCCCCC(=O)NCC(=O)N[C@@H](C)C(=O)N[C@@H](CCC(N)=O)C(=O)N[C@@H](Cc1ccccc1)C(=O)N[C@@H](CO)C(=O)N[C@@H](CCCCN)C(=O)N[C@H](C(=O)N[C@@H](C)C(=O)N[C@@H](C)C(=O)N[C@@H](CCCCN)C(=O)NCC(=O)N[C@@H](CCC(=O)O)C(=O)N[C@@H](C)C(=O)N[C@@H](C)C(=O)N[C@@H](C)C(=O)N[C@@H](CCC(=O)O)C(=O)N[C@@H](CCCNC(=N)N)C(=O)N1CCC[C@H]1C(=O)NCC(=O)N[C@@H](CCC(=O)O)C(=O)O)[C@@H](C)O [SEQ ID NO: 5] (Myristoyl-GAQFSKTAAKGEAAAERPGE-OH; C-terminus assumed) |  |  |  | 77% | 33.6% | 99% | < 5000 µg/mL | 76.8% | 88.4% | 69.1%
4 | CCCCCCCCCCCCCC(=O)NCC(=O)N[C@@H](C)C(=O)N[C@@H](CCC(N)=O)C(=O)N[C@@H](Cc1ccccc1)C(=O)N[C@@H](CO)C(=O)N[C@@H](CCCCN)C(=O)N[C@H](C(=O)N[C@@H](C)C(=O)N[C@@H](C)C(=O)N[C@@H](CCCCN)C(=O)NCC(=O)N[C@@H](CCC(=O)O)C(=O)N[C@@H](C)C(=O)N[C@@H](C)C(=O)N[C@@H](C)C(=O)N[C@@H](CCC(=O)O)C(=O)O)[C@@H](C)O [SEQ ID NO: 9, N-myristoyl-GAQFSKTAAKGEAAAE] (Myristoyl-GAQFSKTAAKGEAAAE-OH; C-terminus assumed) |  |  |  | 68% | 30.3% | 99% | > 2000 µg/mL | 90.3% | 72.7% | 84.8%
